System: U2OS_Bim cells
Assay: Apoptosis inhibition assay (Bim-induced apoptosis, cell viability by ATP level)
Type: cell-based
Conditions: U2OS_Bim cells; means of duplicates; numbering of Tables 4a/4b; read-out: EC50
Procedure, shortened: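 Apoptosis was triggered by doxycycline (0.1 μg/mL) induction of Bim, one hour after compound addition to U2OS_Bim cells. Survival was measured after 24 h from cellular ATP (CellTiter-Glo), relative to DMSO, with zVAD at 20 μM as rescue control. Data are duplicate means, some estimated from preliminary results.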

Row | EC50 [nM] | Compound
1 | 1000 to 10000 | COc1ccc(Cn2cc(-c3cc(C)nc(S(=O)(=O)CC(F)(F)F)n3)ccc2=O)cc1OC [Compound 166, 1-(3,4-dimethoxybenzyl)-5-(6-methyl-2-((2,2,2-trifluoroethyl)sulfonyl)pyrimidin-4-yl)pyridin-2 (1H)-one]
2 | 1 to 1000 | COc1ccc(Cn2cc(-c3cc(C(F)F)nc(S(C)(=O)=O)n3)ccc2=O)cc1F [Compound 167, 5-(6-(difluoromethyl)-2-(methylsulfonyl)pyrimidin-4-yl)-1-(3-fluoro-4-methoxybenzyl)pyridin-2 (11H)-one]
3 | 1 to 1000 | COc1ccc(Cn2cc(-c3cc(C(F)F)nc([S+](C)[O-])n3)ccc2=O)cc1F (stereo not shown) [Compound 168, 5-(6-(difluoromethyl)-2-(methylsulfinyl)pyrimidin-4-yl)-1-(3-fluoro-4-methoxybenzyl)pyridin-2 (1H)-one]
4 | 1 to 1000 | COc1ccc(Cn2cc(-c3cc(C(F)F)nc(S(C)(=O)=O)n3)ccc2=O)cc1C(F)(F)F [Compound 169, 5-(6-(difluoromethyl)-2-(methylsulfonyl)pyrimidin-4-yl)-1-(4-methoxy-3-(trifluoromethyl)benzyl)pyridin-2 (1H)-one]
5 | 1 to 1000 | COc1ccc(Cn2cc(-c3cc(C(F)F)nc([S+](C)[O-])n3)ccc2=O)cc1C(F)(F)F (stereo not shown) [Compound 170, 5-(6-(difluoromethyl)-2-(methylsulfinyl)pyrimidin-4-yl)-1-(4-methoxy-3-(trifluoromethyl)benzyl)pyridin-2 (1H)-one]
6 | 1 to 1000 | COc1cc(Cn2cc(-c3cc(C(F)F)nc(SC)n3)ccc2=O)cc(F)c1OC [Compound 171, 5-(6-(difluoromethyl)-2-(methylthio)pyrimidin-4-yl)-1-(3-fluoro-4,5-dimethoxybenzyl)pyridin-2 (1H)-one]
7 | 1 to 1000 | COc1cccc(CS(=O)(=O)c2nc(-c3ccc(=O)n(Cc4ccc(OC)c(OC)c4)c3)cc(C(F)F)n2)c1 [Compound 172, 5-(6-(difluoromethyl)-2-((3-methoxybenzyl)sulfonyl)pyrimidin-4-yl)-1-(3,4-dimethoxybenzyl)pyridin-2 (1H)-one]
8 | 1000 to 10000 | COc1cccc(C[S+]([O-])c2nc(-c3ccc(=O)n(Cc4ccc(OC)c(OC)c4)c3)cc(C(F)F)n2)c1 (stereo not shown) [Compound 173, 5-(6-(difluoromethyl)-2-((3-methoxybenzyl)sulfinyl)pyrimidin-4-yl)-1-(3,4-dimethoxybenzyl)pyridin-2 (1H)-one]
9 | 1 to 1000 | COc1cccc(S(=O)(=O)c2nc(-c3ccc(=O)n(Cc4ccc(OC)c(OC)c4)c3)cc(C(F)F)n2)c1 [Compound 174, 5-(6-(difluoromethyl)-2-((3-methoxyphenyl)sulfonyl)pyrimidin-4-yl)-1-(3,4-dimethoxybenzyl)pyridin-2 (1H)-one]
10 | 1 to 1000 | COc1cccc([S+]([O-])c2nc(-c3ccc(=O)n(Cc4ccc(OC)c(OC)c4)c3)cc(C(F)F)n2)c1 (stereo not shown) [Compound 175, 5-(6-(difluoromethyl)-2-((3-methoxyphenyl)sulfinyl)pyrimidin-4-yl)-1-(3,4-dimethoxybenzyl)pyridin-2 (1H)-one]
11 | 1000 to 10000 | CNC(=O)CCCS(=O)(=O)c1nc(-c2ccc(=O)n(Cc3ccc(OC)c(OC)c3)c2)cc(C(F)F)n1 [Compound 176, 4-((4-(difluoromethyl)-6-(1-(3,4-dimethoxybenzyl)-6-oxo-1,6-dihydropyridin-3-yl)pyrimidin-2-yl)sulfonyl)-N-methylbutanamide]
12 | < 100000 | CNC(=O)CCC[S+]([O-])c1nc(-c2ccc(=O)n(Cc3ccc(OC)c(OC)c3)c2)cc(C(F)F)n1 (stereo not shown) [Compound 177, 4-((4-(difluoromethyl)-6-(1-(3,4-dimethoxybenzyl)-6-oxo-1,6-dihydropyridin-3-yl)pyrimidin-2-yl)sulfinyl)-N-methylbutanamide]
13 | 1 to 1000 | CNS(=O)(=O)CCCS(=O)(=O)c1nc(-c2ccc(=O)n(Cc3ccc(OC)c(OC)c3)c2)cc(C(F)F)n1 [Compound 178, 3-((4-(difluoromethyl)-6-(1-(3,4-dimethoxybenzyl)-6-oxo-1,6-dihydropyridin-3-yl)pyrimidin-2-yl)sulfonyl)-N-methylpropane-1-sulfonamide]
